# Experimental data taken from EPA's ToxValDB 9.5 (doi:10.2903/j.efsa.2013.3253).
# What was measured:
# Neomysis kadiakensis = details: acute; duration: 96 hours; mortality
# Rattus norvegicus = details: mortality
# Tagia sp. = details: acute; duration: 14 days; mortality
# Canidae = details: chronic; duration: 1 years; oral; Dog Other; histopathology: nonneoplastic
# Pimephales promelas = details: chronic/long-term; duration: 33 days; growth
# Apis mellifera = details: acute, duration: 48 hours, mortality
# Daphnia magna = details: chronic/long-term; duration: 22 days; reproduction
# Cyprinodon variegatus = details: acute; duration: 96 hours; mortality
structure (smiles),measurement,setting,value
COC(=O)CC(NC(=O)[C@@H](NC(=O)OC(C)C)C(C)C)c1ccc(Cl)cc1 (stereo partly specified) [Valifenalate],LC50,Neomysis kadiakensis,2.8 µg/mL
same,LD50,"Rattus norvegicus; acute, oral",> 5000 mg/kg
same,NOAEL,Rattus norvegicus; reproduction developmental,80 mg/kg-day
same,LC50,Tagia sp.,> 1000 mg/kg
same,NOAEL,Canidae,7 mg/kg-day
same,NOEC,Pimephales promelas,12 mg/L
same,LC50,"Colinus virginianus; acute, oral, diet, mortality",> 1510 mg/kg-day
same,LD50,"Colinus virginianus; acute, oral, mortality",> 2250 mg/kg
same,NOAEL,"Colinus virginianus; reproduction developmental, reproduction",104 mg/kg-day
same,LD50,Apis mellifera; dermal,> 100 µg/piece
same,LD50,"Apis mellifera; oral, unspecified",> 107 µg/piece
same,NOEC,Daphnia magna,3.2 mg/L
same,LD50,"Anas platyrhynchos; acute, oral, unspecified, mortality",> 2250 mg/kg
same,NOAEL,"Anas platyrhynchos; reproductive, reproduction",167 mg/kg-day
same,LC50,"Anas platyrhynchos; short-term, oral, feed, mortality",> 2650 mg/kg-day
same,LC50,Cyprinodon variegatus,> 15 µg/mL
